Test results as given in patent publication US20040106802A1, “Novel compounds and therapeutic uses thereof” (TORRENT PHARMACEUTICALS LTD., priority 2002, published 2004).
Counter-ions that a name gives are not always drawn.

Tested on: not listed separately
Assay: In-vitro free radical scavenging activity using DPPH free radical
Details: Concentration 12.5 μM; 30° C., 30 minutes, 515 nm
Source text: Free Radical Scavenging Activity:
To determine the in-vitro free radical scavenging activity of compounds of general formula-I on 2,2,-diphenyl-1-picrylhydrazyl (DPPH)radical (Ref: W. Brand-Williams, M. E. Cuvelier, C. Berset “Use of a free radical method to evaluate antioxidant activity”, Lebensm.- Wiss.u.Technol.,1995,28,Nr.1:25-30).
To evaluate the free radical scavenging activity of compounds they are allowed to react with stable radical DPPH*. In its radical form, DPPH* absorbed at the characteristic wave length of 515 nm, but upon reduction by an antioxidant or radical scavenger (AH), the absorption disappears.
10^−4M solution of DPPH* was prepared in methanol.
Various concentrations (10 mM, 1 mM, 0.5 mM, 0.25 mM and 0.125 mM) of drug solutions were prepared in methanol.
900 μl of DPPH radical solution was added to an eppendorf tube. To it was added 100 μl of methanol.
900 μl of DPPH radical solution was added to an eppendorf tube. To it was added 100 μl of various concentrations of drug solutions in methanol.
The absorbance of control and test samples was recorded after incubation at 30° C. for 30 minutes, at 515 nm taking methanol as blank.
The percent antioxidant activity was calculated according to the formula:
% Antioxidant activity=100−[O.D of test sample/O.D of control*100]

SMILES	% Activity (antioxidant, DPPH)
N#CC1CSCN1C(=O)CN(N)C1CCN(CC(=O)Nc2ccc3c(c2)OCCO3)CC1 (stereo not drawn) [Compound No. 104, 3-[1-oxo-2-[1-(1-(2-oxo-2(2,3dihydrobenzo(1,4)dioxan-6-yl)aminoethyl)piperidin-4-yl)]hydrazino]ethyl-4-cyano-thiazolidine bis-trifluoroacetate]	19.40%

Same assay, conditions: Concentration 25 μM; 30° C., 30 minutes, 515 nm

SMILES	% Activity (antioxidant, DPPH)
N#CC1CSCN1C(=O)CN(N)C1CCN(CC(=O)Nc2ccc3c(c2)OCCO3)CC1 (stereo not drawn) [Compound No. 104, 3-[1-oxo-2-[1-(1-(2-oxo-2(2,3dihydrobenzo(1,4)dioxan-6-yl)aminoethyl)piperidin-4-yl)]hydrazino]ethyl-4-cyano-thiazolidine bis-trifluoroacetate]	36.23%

Same assay, conditions: Concentration 50 μM; 30° C., 30 minutes, 515 nm

SMILES	% Activity (antioxidant, DPPH)
N#CC1CSCN1C(=O)CN(N)C1CCN(CC(=O)Nc2ccc3c(c2)OCCO3)CC1 (stereo not drawn) [Compound No. 104, 3-[1-oxo-2-[1-(1-(2-oxo-2(2,3dihydrobenzo(1,4)dioxan-6-yl)aminoethyl)piperidin-4-yl)]hydrazino]ethyl-4-cyano-thiazolidine bis-trifluoroacetate]	42.20%

Same assay, conditions: Concentration 100 μM; 30° C., 30 minutes, 515 nm

SMILES	% Activity (antioxidant, DPPH)
N#CC1CSCN1C(=O)CN(N)C1CCN(CC(=O)Nc2ccc3c(c2)OCCO3)CC1 (stereo not drawn) [Compound No. 104, 3-[1-oxo-2-[1-(1-(2-oxo-2(2,3dihydrobenzo(1,4)dioxan-6-yl)aminoethyl)piperidin-4-yl)]hydrazino]ethyl-4-cyano-thiazolidine bis-trifluoroacetate]	50.14%

Target: T1, Porcine DPP-IV (Sus scrofa, UniProt P22411)
T1 construct: purchased Sigma-Aldrich Germany
Assay: Assay of DPP-IV enzyme inhibitory activity (spectrophotometric, Gly-Pro-pNA cleavage)
Assay type: biochemical
Details: Porcine DPP-IV, Gly-Pro-pNA substrate, 30° C.; mean ± SD of three experiments except compound Nos. 133 & 139; read-out: IC50 (μM) Mean ± SD, inhibitory activity on DPP-IV enzyme activity
Description: Assay of DPP-IV Enzyme Inhibitory Activity.
The assay method is a modified method (as described by Welch et al, 1998) based on spectrophotometric determination of the product formed by penultimate proline cleaving activity of the enzyme.
Assay protocol involves incubation of the enzyme dipeptidyl peptidase IV with the test substance at 30° C. for 30 min followed by addition of this reaction mixture to the substrate Gly-Pro-pNA that was equilibrated at 30° C. for 2 min. The enzyme cleaves the substrate at penultimate proline and releases p-nitroanilide, the optical density of which is measured at 385 nm. The formation of p-nitroanilide will be reduced in the presence of inhibitor. […] The activity of molecule is expressed in terms of % inhibition. At least three different concentrations were tried out for each of the test substances. The percentage inhibitions for each of the concentrations were plotted and an IC50 of the test compound was worked out. The enzyme inhibitory activity of different test compounds were compared based on the IC50 values.
The percentage inhibition % I, is calculated using the formula:
% I=[(1−vi/v0)]*100 where vi and v0 are the Vmax values with and without the test substance, respectively.
Substrate solution: 0.5 mM in 45 mM phosphate buffer
Substrate used: Gly-Pro-p-nitroanilide (Source: Sigma-Aldrich Co. Germany)
3.288 mg substrate in 1 ml 45 mM phosphate buffer was prepared as stock solution. 0.25 ml of this stock solution was diluted to 5 ml to get 0.5 mM substrate solution (90 μl to be added in each well). The stock solution of the substrate was used within three days of preparation.
Enzyme solution: Porcine DPP-IV (Sigma-Aldrich Germany) was used throughout the study. 0.4 mU in 80 μl of Tris. HCl buffer was prepared. Fresh solutions were prepared everyday for the assays.
Various concentrations of inhibitor were used: 0.391 μM, 0.781 μM, and 3.125 μM. Solutions of inhibitor were prepared and used on the same day.
280 μl of enzyme solution (0.4-mU/80 μl in Tris HCl buffer) was added to the eppendorf containing 70 μl solution of inhibitor or vehicle and mixed. This reaction mixture was incubated for 30 min at 30° C. The 96 well plate containing substrate solution was thermally equilibrated in the spectrophotometer for 2 min at 30° C. Later 100 μl of the enzyme-inhibitor pre-incubation solution was added to respective wells in a 96 well plate. Each concentration of the inhibitor was tested in triplicates.
The rate of change in UV absorbance (in presence of various concentrations of the inhibitor) was measured at 385 nm, with respect to wells containing only 0.5 mM substrate in 45 mM phosphate buffer as blank at every 10 min for 2 hours after adding enzyme-inhibitor mixture to wells containing substrate solution.

T1 sequence (P22411 whole entry): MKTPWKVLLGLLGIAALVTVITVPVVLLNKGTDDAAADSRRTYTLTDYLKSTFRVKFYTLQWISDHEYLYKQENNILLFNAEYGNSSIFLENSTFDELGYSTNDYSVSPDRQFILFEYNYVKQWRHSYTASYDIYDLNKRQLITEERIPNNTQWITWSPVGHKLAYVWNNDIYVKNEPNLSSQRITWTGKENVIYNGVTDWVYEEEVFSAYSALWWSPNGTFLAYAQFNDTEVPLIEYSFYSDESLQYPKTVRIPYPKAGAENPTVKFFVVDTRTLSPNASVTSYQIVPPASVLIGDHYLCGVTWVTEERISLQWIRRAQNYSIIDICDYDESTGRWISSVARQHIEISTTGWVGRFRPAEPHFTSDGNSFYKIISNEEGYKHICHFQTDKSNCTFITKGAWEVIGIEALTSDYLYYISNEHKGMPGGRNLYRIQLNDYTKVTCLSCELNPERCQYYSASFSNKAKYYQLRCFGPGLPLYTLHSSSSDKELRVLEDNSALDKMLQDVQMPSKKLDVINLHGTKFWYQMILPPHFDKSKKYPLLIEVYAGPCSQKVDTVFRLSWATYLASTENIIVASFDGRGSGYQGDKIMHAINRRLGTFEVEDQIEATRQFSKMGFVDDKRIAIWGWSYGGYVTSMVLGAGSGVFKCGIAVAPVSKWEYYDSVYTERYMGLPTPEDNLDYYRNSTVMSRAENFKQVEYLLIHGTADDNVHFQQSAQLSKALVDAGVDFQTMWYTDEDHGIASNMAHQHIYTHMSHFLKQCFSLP

SMILES	IC50
CC1CCC(NN(C)CC(=O)N2CSCC2C#N)CC1 (stereo not drawn) [Compound No. 69, 3-[1-Oxo-2-(1-methyl-2-(4-methylcyclohexyl) hydrazino)]ethyl-4-cyanothiazolidine]	69 ± 10.1 µM
CC1CCC(NN(C)CC(=O)N2CSCC2C#N)CC1 (stereo not drawn) [Compound No. 68, 3-[1-Oxo-2-(1-methyl-2-(4-methylcyclohexyl) hydrazino)]ethyl-4-cyanothiazolidine]	45.3 ± 3.03 µM
N#CC1CCCN1C(=O)CN(N)C1CCCC1 (stereo not drawn) [Compound No. 18, 1-[1-Oxo-2-((1-Cyclopentyl)-hydrazino)]ethyl-2-cyano pyrrolidine trifluoroacetate]	32.1 ± 1.65 µM
Cc1ccc(S(=O)(=O)N2CCC(NN(C)CC(=O)N3CSCC3C#N)CC2)cc1 (stereo not drawn) [Compound No. 56, 3-[1-Oxo-2-[1-methyl-2-(1-(4-methylphenylsulphonyl)-piperidin-4-yl)]hydrazino]ethyl-4-cyanothiazolidine trifluoroacetate]	44.2 ± 1.36 µM
CC(C)CN(N)CC(=O)N1CCCC1C#N (stereo not drawn) [Compound No. 10, 1-[1-Oxo-2-(1-(2-methylpropyl)hydrazino)]ethyl-2-cyano pyrrolidine trifluoroacetate]	69.8 ± 17.5 µM
CC(=O)NN(CC(=O)N1CSCC1C#N)C1CCC(C)CC1 (stereo not drawn) [Compound No. 74, 3-[1-Oxo-2-(1-(4-methylcyclohexyl)-2-acetyl) hydrazino]ethyl-4-cyanothiazolidine]	97.7 ± 13.1 µM
CC1CCC(N(N)CC(=O)N2CS(=O)(=O)CC2C#N)CC1 (stereo not drawn) [Compound No. 67, 1,1-Dioxo-3-[1-oxo-2-(1-(4-methylcyclohexyl)hydrazino)]ethyl-4-cyanothiazolidine trifluoroacetate]	72.5 ± 7.05 µM
N#CC1CCCN1C(=O)CN(N)C1CCN(S(=O)(=O)c2ccc(Cl)cc2)CC1 (stereo not drawn) [Compound No. 73, [1-Oxo-2-(1-(1-(4-chlorophenylsulphonyl)-piperidin-4-yl)-hydrazino)]ethyl-2-cyanopyrrolidine trifluoroacetate]	48.9 ± 1.81 µM
N#CC1CSCN1C(=O)CN(N)C1CCN(CC(=O)Nc2nc3ccccc3s2)CC1 (stereo not drawn) [compound 138]	0.104 ± 0.009 µM
CC(C)NN(CC(=O)N1CCCC1C#N)C1CCCCC1 (stereo not drawn) [Compound No. 38, 1-[1-Oxo-2-(1-cyclohexyl-2-isopropyl)hydrazino]ethyl-2-cyano pyrrolidine]	96.9 ± 23 µM
CC1CCC(CN(N)CC(=O)N2CCCC2C#N)CC1 (stereo not drawn) [Compound No. 39, 1-[1-Oxo-2-(1-(4-methylcyclohexylmethyl)hydrazino)]ethyl-2-cyanopyrrolidine trifluoroacetate]	50.4 ± 4.59 µM
N#CC1CCCN1C(=O)CN(N)C1CCCCC1 (stereo not drawn) [Compound No. 20, 1-[1-Oxo-2-((1-Cyclohexyl)-hydrazino)]ethyl-2-cyano pyrrolidine trifluoroacetate]	33.7 ± 0.99 µM
N#CC1CCCN1C(=O)CN(N)C1CCCCCC1 (stereo not drawn) [Compound No. 30, 1-[1-Oxo-2-((1-Cycloheptyl)-hydrazino)]ethyl-2-cyano pyrrolidine trifluoroacetate]	35.1 ± 2.66 µM
N#CC1CSCN1C(=O)CN(N)C1CCC(NC(=O)c2ccc(F)cc2)CC1.O=C(O)C(F)(F)F (stereo not drawn) [Compound No. 100, 3-[1-oxo-2-[1-(4-fluorobenzoyl)aminocyclohexan-4-yl)]hydrazino]ethyl-4-cyanothiazolidine trifluoroacetate]	0.93 ± 0.015 µM

Now from value to compound:

IC50	SMILES
6.18 ± 0.88 µM	N#CC1CSCN1C(=O)CN(N)c1ccccc1 (stereo not drawn) [Compound No. 9, 3-[1-Oxo-2-((1-phenyl)hydrazino)]ethyl-4-cyano Thiazolidine Trifluoroacetate]
3.7 ± 0.5 µM	N#CC1CCCN1C(=O)CN(N)C1CCN(CC(=O)Nc2ccc(Cl)cn2)CC1 (stereo not drawn) [compound 124, 3-[1-oxo-2-(1-(1-(2-oxo-2-(5-chloropyridin-2-yl)aminoethyl)piperidin-4-yl))hydrazino]ethyl-2-cyanopyrrolidine, tris-trifluoroacetate]
0.87 ± 0.06 µM	CC1CCC(C(=O)N2CCC(N(N)CC(=O)N3CSCC3C#N)CC2)CC1 (stereo not drawn) [Compound No. 65, 3-[1-Oxo-2-[1-(1-(4-methylcyclohexylcarbonyl)-piperidin-4-yl)]hydrazino]ethyl-4-cyanothiazolidine trifluoroacetate]
1.79 ± 0.12 µM	N#CC1CSCN1C(=O)CN(N)C1CCN(C(=O)c2cccc(Cl)c2Cl)CC1 (stereo not drawn) [Compound No. 70, 3-[1-Oxo-2-(1-(1-(2,3-dichlorophenylcarbonyl)-piperidin-4-yl) hydrazino)]ethyl-4-cyanothiazolidine trifluoroacetate]
0.66 ± 0.1 µM	N#CC1CSCN1C(=O)CN(N)C1CCC(NS(=O)(=O)c2ccc(Cl)cc2)CC1 (stereo not drawn) [Compound No. 82]
2.94 ± 0.15 µM	CCC(C)N(N)CC(=O)N1CSCC1C#N (stereo not drawn) [Compound No. 23, 3-[1-Oxo-2-((1-methylpropyl)hydrazino)]ethyl-4-cyano thiazolidine trifluoroacetate]
43 ± 2.76 µM	N#CC1CCCN1C(=O)CN(N)c1ccccn1 (stereo not drawn) [Compound No. 27, 1-[1-Oxo-2-(1-(2-Pyridyl)-hydrazino)]ethyl-2-cyano pyrrolidine bis-trifluoroacetate]
2.29 ± 0.11 µM	N#CC1CSCN1C(=O)CN(N)C1CCCCCC1 (stereo not drawn) [Compound No. 28, 3-[1-Oxo-2-((1-Cycloheptyl)-hydrazino)] ethyl-4-cyano thiazolidine trifluoroacetate]
9.27 ± 0.42 µM	CN(CC(=O)N1CSCC1C#N)NC1CCN(Cc2cccnc2)CC1 (stereo not drawn) [Compound No. 59, 3-[1-Oxo-2-[1-methyl-2-(1-(3-pyridinylmethyl)-piperidin-4-yl)]hydrazino]ethyl-4-cyanothiazolidine tris trifluoroacetate]
0.25 ± 0.02 µM	CS(=O)(=O)NC1CCC(N(N)CC(=O)N2CSCC2C#N)CC1 (stereo not drawn) [Compound No. 78, 3-[1-Oxo-2-(1-(1-methanesulphonylamino-4-cyclohexyl) hydrazino)]ethyl-4-cyanothiazolidine trifluoroacetate]
9.29 ± 0.64 µM	N#CC1CSCN1C(=O)CN(N)Cc1ccccc1 (stereo not drawn) [Compound No. 16, 3-[1-Oxo-2-((1-phenylmethyl)hydrazino)]ethyl-4-cyano thiazolidine trifluoroacetate]
6.43 ± 0.15 µM	CC1CCC(N(CC(=O)N2CSCC2C#N)NC2CCN(C(C)C)CC2)CC1 (stereo not drawn) [Compound No. 54, 3-[1-Oxo-2-[1-(4-methylcyclohexyl)-2-(1-isopropyl-4-piperidinyl)]hydrazino]ethyl-4-cyanothiazolidine]
